Test results taken from article PMC11609934, “Exploration and characterization of the antimalarial activity of cyclopropyl carboxamides that target the mitochondrial protein, cytochrome b” (European Journal of Medicinal Chemistry, 2024).
Read-outs that look alike come from different tables or passages of the source.

Legend:
[1] = system: W466-resistant populations; assay: 72 h growth assay against W466-resistant populations; assay type: cell-based, Plasmodium falciparum; conditions: for EC50: Plasmodium falciparum
Text: To determine the mechanism of action of the cyclopropyl carboxamide series, a forward genetic resistance study was undertaken on the two hit compounds W466 (1) and W499 (2).
The structures of W466 (1) and W499 (2) are slightly different although they appear to belong to the same structural class. To confirm if W466 (1) and W499 (2) may have the same molecular target, W466 (1) and W499 (2) were each evaluated for cross resistance against their respective resistant populations from the pulsed forward genetic study (Fig. 2).

[2] = system: female gamete; assay: Dual gamete formation assay, female gametes; assay type: cell-based; conditions: Plasmodium falciparum; NF54 parasites in a DGFA, 4 replicates
Method: (§1) To determine whether the cyclopropyl carboxamide class has transmission blocking potential we profiled selected analogs in a dual gamete formation assay. In this assay, stage V gametocytes are treated with compound, and gametogenesis is induced by the addition of xanthurenic acid. Male gamete viability is determined by an imaging algorithm measuring motile flagellation, while female viability is measured using an antibody to the female-specific Pfs25 surface marker. […] Collectively, the activity observed against male gametes is consistent with activity observed with other cyt b inhibitors.
(§2) Dual Gamete Formation Assay. Compounds were evaluated as previously described as a platform run at both Imperial College London and the London School of Hygiene and Tropical Medicine. Briefly, mature stage V gametocytes were exposed to compounds for 48 h at 37 °C in 384 well plates in gametocyte culture medium (RPMI 1640 supplemented with 25 mM HEPES, 50 μg/mL hypoxanthine, 4.8 g/L NaHCO3, 2 mM L-glutamine, 5 % pooled type AB serum, 0.5 % Albumax II (Gibco)) under a 1 % O2/3 % CO2/96 % N2 environment. Gametogenesis was then triggered by the addition of 10 μL ookinete medium (gametocyte culture medium supplemented with 100 μM xanthurenic acid and 0.27 μg/mL Cy3-labelled anti-Pfs25 antibody) to each well at room temperature. Plates were then cooled on a metal block at 4 °C for 4 min to ensure even cooling and then stabilized for a further 4 min at 28 °C. At 20 min post-induction, male gametogenesis was recorded in each well by automated brightfield microscopy using a × 4 objective lens and 1.5 × magnifier ( × 6 effective magnification). Afterward, plates were incubated in the dark at room temperature for 24 h and then female gametogenesis recorded in each well by automated fluorescence microscopy (anti-Pfs25-positive cells). […] All data was evaluated in comparison to the positive and negative controls to calculate percentage inhibition of male and female gametocytes, and dose response analysis and EC50 calculation performed using GraphPad Prism.

[3] = system: ring-stage P. falciparum parasites; assay: Asexual stage of arrest assay; assay type: cell-based, Plasmodium falciparum; conditions: 10 times EC50, sampled every 12 h for 48 h
Method: Characterization of asexual stage phenotype and rate of asexual kill is important in determining the downstream application and TCP of an antimalarial series. […] Parasites were sampled every 12 h for 48 h, to prepare Giemsa-stained blood smears for analysis by microscopy. Parasitemia of each sample was measured by flow cytometry using SYBR-Green DNA staining.
Asexual Stage of Arrest Assay. This assay was conducted as previously described.

[4] = system: W499-resistant populations; assay: microbe, parasite or virus in culture; assay type: cell-based, Plasmodium falciparum; conditions: for EC50: Plasmodium falciparum
Text: To confirm if W466 (1) and W499 (2) may have the same molecular target, W466 (1) and W499 (2) were each evaluated for cross resistance against their respective resistant populations from the pulsed forward genetic study (Fig. 2).

[5] = system: Dd2-B2; assay: 72 h SYBR Green I / MitoTracker flow cytometry assay, Dd2-B2; assay type: cell-based; conditions: Plasmodium falciparum, DD2, 72 h
Method: MIR assay.Plasmodium falciparum asexual blood stage (ABS) parasites were cultured at 3 % hematocrit in human O^+ RBCs in RPMI-1640 media, supplemented with 25 mM HEPES, 50 mg/L hypoxanthine, 2 mM L-glutamine, 0.21 % sodium bicarbonate, 0.5 % (wt/vol) AlbuMAXII (Invitrogen) and 10 μg/mL gentamycin, in modular incubator chambers (Billups- Rothenberg) at 5 % O2, 5 % CO2 and 90 % N2 at 37 °C. Dd2 parasites were obtained from T. Wellems (NIAID, NIH). Dd2-B2 is a genetically homogenous line that was cloned from Dd2 by limiting dilution in the Fidock lab. Dd2-Polδ is a line edited in the Fidock Lab to have a hypermutable polymerase. […] Parasite survival was assessed by flow cytometry on an iQue flow cytometer (Sartorius) using SYBR Green and MitoTracker Deep Red FM (Life Technologies) as nuclear stain and vital dyes respectively.

[6] = system: male gamete; assay: Dual gamete formation assay, male gametes; assay type: cell-based; conditions: Plasmodium falciparum; NF54 parasites in a DGFA, 4 replicates
Method: as §1, §2

[7] = system: Pf Dd2 parental line; assay: Asexual stage assay, Dd2 parental line (SYBR green by FACS, 72 h); assay type: cell-based; conditions: Plasmodium falciparum, DD2, 72 h, read-out: Pf Dd2 EC50 (SD), 72 h, SYBR green by FACS, 3 experiments
Method: Cyt b Resistant and ScDHODH Asexual Stage Assays. These assays were conducted as previously described. Briefly, asexual parasite strains indicated in Table 12 were incubated with compound in a dose response format for 72 h. Parasitemia was determined using SYBR-green fluorescence measured by flow cytometry (Thermo Fisher Attune). EC50 values were determined as described for the LDH assay.

SMILES	fold shift in EC50 against W466-resistant populations compared to wildtype 3D7 [1] [fold]	EC50 ([1]; read-out: EC50 against W466-resistant parasites) [nM]	EC50 ([1]; read-out: W466-resistant populations EC50 (SD) #1) [nM]	EC50 ([1]; read-out: W466-resistant populations EC50 (SD) #2) [nM]	EC50 ([1]; read-out: W466-resistant populations EC50 (SD) #3) [nM]	EC50 [2] [nM]	asexual stage of arrest [3]	fold shift in EC50 against W499-resistant populations compared to wildtype 3D7 [4]	EC50 ([4]; read-out: W499-resistant population #2 EC50) [nM]	EC50 ([4]; read-out: W499-resistant population #3 EC50) [nM]	IC50 ([5]; read-out: IC50 Dd2-B2) [nM]	IC90 ([5]; read-out: IC90 Dd2-B2) [nM]	EC50 [6] [nM]	EC50 [7] [nM]
O=C(NC1CC1)c1ccc(CN(Cc2ccc(Cl)cc2Cl)C2CC2)cc1 [W499 (2)]	2	220 to 280	283	243	215	> 25000	parasite arrest at the start of the trophozoite stage	1.6–1.9 fold	206	177	112	224	760	
CCCN(Cc1ccc(C(=O)NC2CC2)cc1)Cc1ccc(C(F)(F)F)cc1 [WJM280 (108), N-Cyclopropyl-4-((propyl(4-(trifluoromethyl)benzyl)amino)methyl)benzamide]														10
